Laboratory results reported in patent US11420969B2 (Exonate Limited, priority 2017, dated 2022).

Experiments:
SRPK1 = SRPK1 (Homo sapiens, UniProt Q96SB4); experiment: In vitro SRPK1 assay (Kinase-Glo); format: biochemical
CYP1A2 = molecular target: T1, CYP1A2 (Homo sapiens, UniProt P05177); experiment: CYP inhibition assay, human liver microsomes, substrate tacrine; format: in vitro ADME; conditions: human liver microsomes, 10 min incubation, LC-MS/MS; read-out: CYP Inhibition Activity (IC50/nM) CYP1A2
T1 construct: from tissue; host or cells: human liver microsomes
T1 sequence (P05177 1-516): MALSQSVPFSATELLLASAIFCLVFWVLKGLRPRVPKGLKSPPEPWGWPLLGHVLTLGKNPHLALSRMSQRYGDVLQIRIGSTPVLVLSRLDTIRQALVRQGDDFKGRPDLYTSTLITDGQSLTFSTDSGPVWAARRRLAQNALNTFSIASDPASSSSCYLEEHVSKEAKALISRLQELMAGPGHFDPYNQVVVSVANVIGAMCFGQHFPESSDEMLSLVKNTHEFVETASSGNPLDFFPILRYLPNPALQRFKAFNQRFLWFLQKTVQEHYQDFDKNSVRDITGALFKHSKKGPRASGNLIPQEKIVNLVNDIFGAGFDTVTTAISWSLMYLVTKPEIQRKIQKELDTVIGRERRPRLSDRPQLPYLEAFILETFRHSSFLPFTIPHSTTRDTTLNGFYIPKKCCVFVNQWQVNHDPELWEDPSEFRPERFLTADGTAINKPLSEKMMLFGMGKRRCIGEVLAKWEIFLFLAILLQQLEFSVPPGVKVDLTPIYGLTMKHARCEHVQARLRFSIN
Outline: (§1)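 Test compound or positive inhibitor was combined with a pooled substrate mix and pre-incubated 20 min at 37 °C; reactions were started with pre-warmed NADPH and run 10 min at 37 °C. Cold acetonitrile stopped them, and supernatants were analysed by LC-MS/MS to derive % inhibition and IC50.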

CYP2C9 = molecular target: T2, CYP2C9 (Homo sapiens, UniProt P11712); experiment: CYP inhibition assay, human liver microsomes, substrate diclofenac; format: in vitro ADME; conditions: human liver microsomes, 10 min incubation, LC-MS/MS; read-out: CYP Inhibition Activity (IC50/nM) CYP2C9
T2 construct: from tissue; host or cells: human liver microsomes
Outline: as §1

CYP2C19 = molecular target: T3, CYP2C19 (Homo sapiens, UniProt P33261); experiment: CYP inhibition assay, human liver microsomes, substrate S-mephenytoin; format: in vitro ADME; conditions: human liver microsomes, 10 min incubation, LC-MS/MS; read-out: CYP Inhibition Activity (IC50/nM) CYP2C19
T3 construct: from tissue; host or cells: human liver microsomes
Outline: as §1

CYP2D6 = molecular target: T4, CYP2D6 (Homo sapiens, UniProt P10635); experiment: biochemical; format: in vitro ADME
T4 construct: from tissue; host or cells: human liver microsomes
Outline: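 Human liver microsomes (0.253 mg/mL working stock) pre-incubated with compound and substrate pool at 37° C for 20 min. Reaction started with NADPH and run 10 min at 37° C, stopped with cold ACN. Metabolite analysed by LC-MS/MS; % inhibition and IC50 calculated versus inhibitor-free control.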

CYP3A4 = molecular target: T5, CYP3A4 (Homo sapiens, UniProt P08684); experiment: CYP inhibition assay, human liver microsomes, substrate midazolam; format: in vitro ADME; conditions: human liver microsomes, 10 min incubation, LC-MS/MS; read-out: CYP Inhibition Activity (IC50/nM) CYP3A4
T5 construct: from tissue; host or cells: human liver microsomes
Outline: as §1

T2 sequence (P11712 whole entry): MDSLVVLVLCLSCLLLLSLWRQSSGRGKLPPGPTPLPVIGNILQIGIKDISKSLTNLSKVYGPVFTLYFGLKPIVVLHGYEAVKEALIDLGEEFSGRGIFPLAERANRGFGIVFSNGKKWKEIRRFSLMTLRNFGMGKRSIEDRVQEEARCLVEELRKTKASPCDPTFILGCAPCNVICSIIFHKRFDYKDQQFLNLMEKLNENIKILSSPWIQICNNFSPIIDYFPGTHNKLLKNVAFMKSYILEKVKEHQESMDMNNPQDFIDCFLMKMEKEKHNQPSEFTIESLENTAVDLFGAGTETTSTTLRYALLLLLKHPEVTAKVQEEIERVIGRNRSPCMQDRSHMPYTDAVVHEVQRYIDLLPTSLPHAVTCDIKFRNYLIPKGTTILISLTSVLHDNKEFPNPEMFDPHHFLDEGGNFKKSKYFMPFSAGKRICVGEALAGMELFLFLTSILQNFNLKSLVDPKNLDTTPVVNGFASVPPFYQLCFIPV
Chain of SRPK1 (Q96SB4 whole entry, species assumed): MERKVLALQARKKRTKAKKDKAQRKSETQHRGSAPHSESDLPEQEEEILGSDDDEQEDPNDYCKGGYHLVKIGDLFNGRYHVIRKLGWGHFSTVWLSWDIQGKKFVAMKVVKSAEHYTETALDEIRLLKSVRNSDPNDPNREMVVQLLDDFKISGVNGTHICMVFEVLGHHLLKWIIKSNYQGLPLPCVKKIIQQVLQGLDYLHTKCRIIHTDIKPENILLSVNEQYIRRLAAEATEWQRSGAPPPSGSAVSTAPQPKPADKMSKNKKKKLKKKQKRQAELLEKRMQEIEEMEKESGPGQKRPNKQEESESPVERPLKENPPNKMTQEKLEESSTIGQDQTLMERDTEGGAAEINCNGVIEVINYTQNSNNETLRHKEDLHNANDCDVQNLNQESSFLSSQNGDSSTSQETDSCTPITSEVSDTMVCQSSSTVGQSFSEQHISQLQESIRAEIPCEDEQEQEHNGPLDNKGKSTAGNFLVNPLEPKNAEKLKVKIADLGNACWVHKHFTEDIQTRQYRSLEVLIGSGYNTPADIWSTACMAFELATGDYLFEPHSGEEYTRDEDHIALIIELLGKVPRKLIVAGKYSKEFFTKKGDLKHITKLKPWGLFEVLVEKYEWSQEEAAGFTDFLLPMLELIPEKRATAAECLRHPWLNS
T3 sequence (P33261 whole entry): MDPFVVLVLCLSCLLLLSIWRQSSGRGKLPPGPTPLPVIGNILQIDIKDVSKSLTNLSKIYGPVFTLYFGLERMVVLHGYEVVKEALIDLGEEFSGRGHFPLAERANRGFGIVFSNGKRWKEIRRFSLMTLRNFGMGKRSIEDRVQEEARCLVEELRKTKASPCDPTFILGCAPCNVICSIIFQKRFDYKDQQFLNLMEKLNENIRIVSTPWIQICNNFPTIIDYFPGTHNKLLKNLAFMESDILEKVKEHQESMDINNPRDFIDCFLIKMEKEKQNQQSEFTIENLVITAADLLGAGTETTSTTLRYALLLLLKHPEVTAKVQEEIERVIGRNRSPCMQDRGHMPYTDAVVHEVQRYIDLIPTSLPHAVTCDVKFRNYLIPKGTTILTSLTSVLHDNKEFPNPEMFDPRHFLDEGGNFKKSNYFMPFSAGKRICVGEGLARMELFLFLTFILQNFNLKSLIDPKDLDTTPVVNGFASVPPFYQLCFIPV
T5 sequence (P08684 whole entry): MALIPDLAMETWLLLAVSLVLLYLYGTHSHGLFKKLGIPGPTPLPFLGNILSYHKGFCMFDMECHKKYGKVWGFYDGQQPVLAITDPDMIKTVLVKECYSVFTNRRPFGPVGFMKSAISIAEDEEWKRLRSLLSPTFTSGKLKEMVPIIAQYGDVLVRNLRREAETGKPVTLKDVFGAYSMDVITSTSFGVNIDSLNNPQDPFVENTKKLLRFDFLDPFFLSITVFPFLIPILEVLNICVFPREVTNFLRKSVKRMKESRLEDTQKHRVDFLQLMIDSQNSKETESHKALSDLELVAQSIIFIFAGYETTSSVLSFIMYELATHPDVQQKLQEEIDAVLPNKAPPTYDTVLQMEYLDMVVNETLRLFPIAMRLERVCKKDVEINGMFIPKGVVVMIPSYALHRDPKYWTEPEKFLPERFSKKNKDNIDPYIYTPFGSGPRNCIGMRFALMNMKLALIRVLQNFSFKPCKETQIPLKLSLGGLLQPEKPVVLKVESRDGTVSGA
T4 sequence (P10635 whole entry): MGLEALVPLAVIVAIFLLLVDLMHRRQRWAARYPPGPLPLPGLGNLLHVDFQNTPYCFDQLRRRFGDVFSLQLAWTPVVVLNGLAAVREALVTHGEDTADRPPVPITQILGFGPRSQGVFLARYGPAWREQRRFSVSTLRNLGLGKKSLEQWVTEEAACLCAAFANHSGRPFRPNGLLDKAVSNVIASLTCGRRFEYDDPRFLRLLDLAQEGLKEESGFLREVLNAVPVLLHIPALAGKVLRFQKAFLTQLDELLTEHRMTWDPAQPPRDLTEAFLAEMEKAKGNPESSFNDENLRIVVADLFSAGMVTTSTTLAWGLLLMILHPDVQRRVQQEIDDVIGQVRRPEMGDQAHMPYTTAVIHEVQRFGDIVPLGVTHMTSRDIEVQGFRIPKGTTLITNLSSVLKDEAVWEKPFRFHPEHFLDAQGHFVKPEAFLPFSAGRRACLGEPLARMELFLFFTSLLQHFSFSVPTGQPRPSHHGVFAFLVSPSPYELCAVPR

Row | IC50 (SRPK1) [nM] | IC50 (CYP1A2) [nM] | IC50 (CYP2C9) [nM] | IC50 (CYP2C19) [nM] | IC50 (CYP2D6) [µM] | IC50 (CYP3A4) [nM] | Compound
1 | 2 | > 30000 | > 30000 | > 30000 | > 30 | > 30000 | CC1(CO)CCN(c2ccc(C(F)(F)F)cc2NC(=O)c2ccc(-c3ccncc3)o2)CC1 [Example 24, N-(2-(4-(hydroxymethyl)-4-methylpiperidin-1-yl)-5-(trifluoromethyl)phenyl)-5-(pyridin-4-yl)furan-2-carboxamide]
2 | 71 | > 30000 | > 30000 | 22600 | > 30 | > 30000 | CC1(O)CCN(c2ccc(Cl)cc2NC(=O)c2ccc(C3CCOCC3)o2)C1 (racemic) [Example 60, N-(5-chloro-2-(3-hydroxy-3-methylpyrrolidin-1-yl)phenyl)-5-(tetrahydro-2H-pyran-4-yl)furan-2-carboxamide]
3 | 1.5 | 24300 | 11200 | 8570 | 25.3 | 26300 | O=C(Nc1cc(C(F)(F)F)ccc1N1CCCC(O)CC1)c1ccc(-c2ccncc2)o1 (racemic) [Example 44, N-(2-(4-hydroxyazepan-1-yl)-5-(trifluoromethyl)-phenyl)-5-(pyridin-4-yl)furan-2-carboxamide]
4 | 5.6 | > 30000 | 2150 | 12900 | > 30 | 4440 | CC1(C(=O)O)CCN(c2ccc(C(F)(F)F)cc2NC(=O)c2ccc(-c3ccncc3)o2)CC1 [Example 26, 4-methyl-1-(2-(5-(pyridin-4-yl)furan-2-carboxamido)-4-(trifluoromethyl)phenyl)-piperidine-4-carboxylic acid]
5 | 1.5 | > 30000 | 11000 | 12200 | 24.8 | > 30000 | O=C(Nc1cc(Cl)ccc1N1CCC(O)CC1)c1ccc(C2CCOCC2)o1 [Example 62, N-(5-chloro-2-(4-hydroxypiperidin-1-yl)phenyl)-5-(tetrahydro-2H-pyran-4-yl)furan-2-carboxamide]
6 | 5.6 | > 30000 | 690 | 1870 | 1.61 | 470 | CNC(=O)C1(C)CCN(c2ccc(C(F)(F)F)cc2NC(=O)c2ccc(-c3ccncc3)o2)CC1 [Example 73, N,4-dimethyl-1-(2-(5-(pyridin-4-yl)furan-2-carboxamido)-4-(trifluoromethyl)phenyl)-piperidine-4-carboxamide]
7 | 35 | 15300 | 12700 | 12300 | > 30 | 18800 | O=C(Nc1cc(C(F)(F)F)ccc1N1CCC(O)(c2ccccc2)CC1)c1ccc(C2CCOCC2)o1 [Example 22, N-(2-(4-hydroxy-4-phenylpiperidin-1-yl)-5-(trifluoromethyl)-phenyl)-5-(tetrahydro-2H-pyran-4-yl)furan-2-carboxamide]
8 | 44.6 | > 30000 | 14100 | 9400 | 0.1 | 3900 | CC1(N)CCN(c2ccc(C(F)(F)F)cc2NC(=O)c2ccc(-c3ccncc3)o2)CC1 [Example 102, N-(2-(4-amino-4-methylpiperidin-1-yl)-5-(trifluoromethyl)phenyl)-5-(pyridin-4-yl)furan-2-carboxamide]
9 | 4 | 21700 | 7670 | 7500 | 15.4 | 10000 | CC1(O)CCCN(c2ccc(Cl)cc2NC(=O)c2ccc(-c3ccncc3)o2)CC1 (racemic) [Example 38, N-(5-chloro-2-(4-hydroxy-4-methylazepan-1-yl)phenyl)-5-(pyridin-4-yl)furan-2-carboxamide]
